From US20150148551A1, “GENISTEIN FOR REDUCING LEVELS OF STORAGE COMPOUNDS IN THE TREATMENT AND/OR PREVENTION OF LYSOSOMAL STORAGE DISEASES (LSDS)” (3G THERAPEUTICS, INC., priority 2012, published 2015)

Columns and labels:
Assay type in all cases: cell-based, human
LGMN = experiment: DNA microarray, LGMN expression in fibroblasts exposed to genistein; conditions: 100 μM, 48 h vs DMSO
Description: (§1) The experiments were conducted to characterise the transcriptomic profile of human fibroblast cells exposed to genistein, and in particular to determine the expression of genes encoding lysosomal enzymes involved in metabolism (i.e. synthesis and degradation) of organic substances. The absence or deficiency of these enzymes' activity is responsible for occurrence of various lysosomal storage diseases (LSD) (including MPS). The tested hypothesis assumed that genistein influences the expression of many genes, among which there are genes coding for enzymes required in metabolism of compounds, which are pathologically stored in LSD. The results provide important information regarding genistein action on the molecular level within the range of gene expression modulation by this substance. The experiment was conducted in biological quintuplicates. Human dermal fibroblasts (HDFa) were exposed in vitro for 1, 24 or 48 hours to: 30, 60 or 100 μM of genistein; 0.05% DMSO (K1); or were untreated (control cells) (K2), and total RNA was isolated and analysed.
(§2) Fibroblast cells were grown in Dulbecco (DMEM) medium supplemented with 10% fetal bovine serum (FBS) with the addition of 1% antibiotics and anti-fungal agents at 37° C. in humidified atmosphere of 5% CO2, until the required confluency was obtained.
(§3) To determine the effect of tested compound on the transcriptom of the fibroblast cells, the growth medium was replaced with fresh medium, either non-supplemented (0.05% DMSO), or containing genistein (30, 60 or 100 μM, in 0.05% DMSO). The exposure was done for 1, 24 or 48 hours.
(§4) Total RNA was isolated from fibroblasts using High Pure RNA Isolation Kit according to the protocol and then it was quantitatively evaluated using Quant-It™ RiboGreen® Assay Kit.
(§5) Biotinylated cRNA was prepared using Ambion Total PrepAmp Kit for Illumina arrays.
(§6) Standard hybridization and quantitative image analysis procedures—Illumina hybridization protocol and Illumina scanning protocol, were used.
(§7) Processing of the results was done during data definition, including: background correction (using background subtraction method), normalization (using quantile normalization algorithm with Illumina GenomeStudio software package: gene expression module version 1.9.0) and summarization (using method, which sums the values of signal intensities from a set of probes).

MANBA = experiment: DNA microarray, MANBA expression in fibroblasts exposed to genistein; conditions: for MANBA fold change Average: 48 h vs DMSO
Description: as §1, §2, §3, §4, §5, §6, §7

GAA = experiment: DNA microarray, GAA expression in fibroblasts exposed to genistein; conditions: for GAA fold change Average: 48 h vs DMSO
Description: as §1, §2, §3, §4, §5, §6, §7

AGA = experiment: DNA microarray, AGA expression in fibroblasts exposed to genistein; conditions: for AGA fold change Average: 48 h vs DMSO
Description: as §1, §2, §3, §4, §5, §6, §7

SGSH = experiment: DNA microarray, SGSH expression in fibroblasts exposed to genistein; conditions: for SGSH fold change Average: 48 h vs DMSO
Description: as §1, §2, §3, §4, §5, §6, §7

CTSF = experiment: DNA microarray, CTSF expression in fibroblasts exposed to genistein; conditions: for CTSF fold change Average: 48 h vs DMSO
Description: as §1, §2, §3, §4, §5, §6, §7

CTSA = experiment: DNA microarray, CTSA expression in fibroblasts exposed to genistein; conditions: for CTSA fold change Average: 48 h vs DMSO
Description: as §1, §2, §3, §4, §5, §6, §7

ASAH1 = experiment: DNA microarray, ASAH1 expression in fibroblasts exposed to genistein; conditions: for ASAH1 fold change Average: 48 h vs DMSO
Description: as §1, §2, §3, §4, §5, §6, §7

XYLT1 = experiment: DNA microarray, XYLT1 expression in fibroblasts exposed to genistein
Description: as §1, §2, §3, §4, §5, §6, §7

SMILES: O=c1c(-c2ccc(O)cc2)coc2cc(O)cc(O)c12 [genistein, 4′,5,7-trihydroxy-3-phenylchromen-4-one]
- LGMN fold change Average (LGMN): 1.833 fold change
- MANBA fold change Average 1h30/1hK1 (MANBA; 30 μM, 1 h vs 0.05% DMSO): 1.0095 fold change
- MANBA fold change Average (MANBA; 30 μM): 1.6385 fold change
- MANBA fold change Average 1h60/1hK1 (MANBA; 60 μM, 1 h vs 0.05% DMSO): 1.041 fold change
- MANBA fold change Average (MANBA; 60 μM): 2.173 fold change
- MANBA fold change Average 1h100/1hK1 (MANBA; 100 μM, 1 h vs 0.05% DMSO): 0.9489 fold change
- MANBA fold change Average (MANBA; 100 μM): 2.387 fold change
- GAA fold change Average 1h30/1hK1 (GAA; 30 μM, 1 h vs 0.05% DMSO): 0.9686 fold change
- GAA fold change Average 1h60/1hK1 (GAA; 60 μM, 1 h vs 0.05% DMSO): 1.087 fold change
- GAA fold change Average (GAA; 60 μM): 1.763 fold change
- GAA fold change Average 1h100/1hK1 (GAA; 100 μM, 1 h vs 0.05% DMSO): 0.935 fold change
- GAA fold change Average (GAA; 100 μM): 1.955 fold change
- AGA fold change Average 1h30/1hK1 (AGA; 30 μM, 1 h vs 0.05% DMSO): 1.0395 fold change
- AGA fold change Average (AGA; 30 μM): 1.3732 fold change
- AGA fold change Average 1h60/1hK1 (AGA; 60 μM, 1 h vs 0.05% DMSO): 0.9753 fold change
- AGA fold change Average (AGA; 60 μM): 1.864 fold change
- AGA fold change Average 1h100/1hK1 (AGA; 100 μM, 1 h vs 0.05% DMSO): 0.9749 fold change
- AGA fold change Average (AGA; 100 μM): 2.33 fold change
- SGSH fold change Average 1h30/1hK1 (SGSH; 30 μM, 1 h vs 0.05% DMSO): 1.0703 fold change
- SGSH fold change Average 1h60/1hK1 (SGSH; 60 μM, 1 h vs 0.05% DMSO): 1.065 fold change
- SGSH fold change Average (SGSH; 60 μM): 1.122 fold change
- SGSH fold change Average 1h100/1hK1 (SGSH; 100 μM, 1 h vs 0.05% DMSO): 1.07 fold change
- SGSH fold change Average (SGSH; 100 μM): 0.9299 fold change
- CTSF fold change Average 1h30/1hK1 (CTSF; 30 μM, 1 h vs 0.05% DMSO): 1.0096 fold change
- CTSF fold change Average (CTSF; 30 μM): 1.417 fold change
- CTSF fold change Average 1h60/1hK1 (CTSF; 60 μM, 1 h vs 0.05% DMSO): 0.9505 fold change
- CTSF fold change Average (CTSF; 60 μM): 1.8 fold change
- CTSF fold change Average 1h100/1hK1 (CTSF; 100 μM, 1 h vs 0.05% DMSO): 0.9458 fold change
- CTSF fold change Average (CTSF; 100 μM): 2.066 fold change
- CTSA fold change Average 1h30/1hK1 (CTSA; 30 μM, 1 h vs 0.05% DMSO): 1.0199 fold change
- CTSA fold change Average (CTSA; 30 μM): 1.3019 fold change
- CTSA fold change Average 1h60/1hK1 (CTSA; 60 μM, 1 h vs 0.05% DMSO): 0.9816 fold change
- CTSA fold change Average (CTSA; 60 μM): 1.637 fold change
- CTSA fold change Average 1h100/1hK1 (CTSA; 100 μM, 1 h vs 0.05% DMSO): 0.9643 fold change
- CTSA fold change Average (CTSA; 100 μM): 1.571 fold change
- ASAH1 fold change Average 1h30/1hK1 (ASAH1; 30 μM, 1 h vs 0.05% DMSO): 1.1419 fold change
- ASAH1 fold change Average (ASAH1; 30 μM): 1.0802 fold change
- ASAH1 fold change Average 1h60/1hK1 (ASAH1; 60 μM, 1 h vs 0.05% DMSO): 1.029 fold change
- ASAH1 fold change Average (ASAH1; 60 μM): 1.412 fold change
- ASAH1 fold change Average 1h100/1hK1 (ASAH1; 100 μM, 1 h vs 0.05% DMSO): 1.252 fold change
- ASAH1 fold change Average (ASAH1; 100 μM): 1.52 fold change
- XYLT1 fold change Average 1h30/1hK1 (XYLT1; 30 μM, 1 h vs 0.05% DMSO): 1.058 fold change
- XYLT1 fold change Average 24h30/24hK1 (XYLT1; 30 μM, 24 h vs 0.05% DMSO): 0.8611 fold change
- XYLT1 fold change Average 48h30/48hK1 (XYLT1; 30 μM, 48 h vs 0.05% DMSO): 0.9745 fold change
- XYLT1 fold change Average 24h60/24hK1 (XYLT1; 60 μM, 24 h vs 0.05% DMSO): 0.6217 fold change
- XYLT1 fold change Average 1h100/1hK1 (XYLT1; 100 μM, 1 h vs 0.05% DMSO): 1 fold change
- XYLT1 fold change Average 24h100/24hK1 (XYLT1; 100 μM, 24 h vs 0.05% DMSO): 0.6324 fold change
- XYLT1 fold change Average 48h100/48hK1 (XYLT1; 100 μM, 48 h vs 0.05% DMSO): 0.921 fold change
